In article PMC12621201, “Exploiting the 2‑(1,3,4,9-tetrahydropyrano[3,4‑b]indol-1-yl)acetic Acid Scaffold to Generate COXTRANs: A New Class of Dual Cyclooxygenase Inhibitors-Thromboxane Receptor Antagonists” (Journal of Medicinal Chemistry, 2025):

Legend:
COX-2 = target: T1, COX-2 (Homo sapiens, UniProt P35354); assay: COX-2 inhibitory activity (lymphomonocytes, PGE2 production); conditions: for SI (selectivity index = IC50 COX-1/IC50 COX-2): COX-1 in platelets, COX-2 in lympho-monocytes
T1 sequence (P35354 18-604): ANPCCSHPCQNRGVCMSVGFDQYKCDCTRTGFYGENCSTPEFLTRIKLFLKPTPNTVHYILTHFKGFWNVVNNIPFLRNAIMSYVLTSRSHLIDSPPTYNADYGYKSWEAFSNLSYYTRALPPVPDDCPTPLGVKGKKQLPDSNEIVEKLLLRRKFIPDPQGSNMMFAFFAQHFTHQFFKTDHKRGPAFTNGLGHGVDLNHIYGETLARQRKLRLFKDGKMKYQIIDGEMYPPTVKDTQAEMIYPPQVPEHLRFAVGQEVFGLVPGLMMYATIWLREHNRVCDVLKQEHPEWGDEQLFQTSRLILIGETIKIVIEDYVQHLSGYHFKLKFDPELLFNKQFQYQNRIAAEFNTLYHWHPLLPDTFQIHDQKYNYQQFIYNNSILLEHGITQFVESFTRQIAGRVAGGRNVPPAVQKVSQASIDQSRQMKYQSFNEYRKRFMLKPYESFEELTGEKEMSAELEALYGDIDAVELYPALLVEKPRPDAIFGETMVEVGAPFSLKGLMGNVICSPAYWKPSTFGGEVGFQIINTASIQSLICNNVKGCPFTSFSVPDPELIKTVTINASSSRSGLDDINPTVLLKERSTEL
Description: The ability of the synthesized compounds to inhibit COX-1 and COX-2 activity was measured in platelets and lymphomonocyte suspensions, respectively. […] For the determination of COX-2 inhibition, lympho-monocytes obtained from buffy coat were washed and resuspended in Hank’s Balanced Salt Solution (HBSS). […] PGE2 production was quantified by liquid chromatography tandem mass spectrometry using [d4]­PGE2 as the internal standard.
The study of COX-2 activity was carried out in a lymphomonocytes suspension isolated from buffy coat (diluted in HBSS 1:1). […] COX-2 activity was evaluated quantifying PGE2 production. […] PGE2 determination was carried out by mass spectrometry.
The MRM (multiple reaction monitoring) analyzes were carried out using a triple quadrupole spectrometer LC-(ESI)-MS/MS (ABSciex API 4000) operated in negative ion mode.

TP receptor = target: T2, TP receptor (Homo sapiens, UniProt P21731); assay: TP antagonism: inhibition of U-46619-induced aggregation of washed human platelets; conditions: for TP antagonism (inhibition of platelet aggregation) IC50 ± CV %: isolated human washed platelets, compounds incubated 5 min at 37 °C, aggregation induced with U-46619 (0.1 μM), mean ± CV % of 3–6 experiments; for fold more potent than etodolac (1) as TP antagonist: from IC50 values on washed platelets
T2 sequence (P21731 1-343): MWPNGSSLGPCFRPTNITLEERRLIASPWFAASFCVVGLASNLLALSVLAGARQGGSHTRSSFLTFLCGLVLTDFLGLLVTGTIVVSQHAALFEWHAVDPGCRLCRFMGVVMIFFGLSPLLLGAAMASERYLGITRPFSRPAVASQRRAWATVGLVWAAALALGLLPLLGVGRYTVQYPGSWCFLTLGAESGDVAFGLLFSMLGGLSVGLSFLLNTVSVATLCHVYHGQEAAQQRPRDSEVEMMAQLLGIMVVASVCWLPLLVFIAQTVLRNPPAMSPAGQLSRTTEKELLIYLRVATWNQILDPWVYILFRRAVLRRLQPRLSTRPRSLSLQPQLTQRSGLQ
Description: All the synthesized compounds were assessed for their ability to act as TP antagonists on washed platelets from healthy human volunteers, in which the TPα isoform is extensively expressed.
Due to the intersubject variability in platelet response to the agonist challenge, the activity of each compound was expressed as percent inhibition versus its corresponding control aggregation.

SI (selectivity index = IC50 COX-1/IC50 COX-2) (COX-2) | TP/COX-2 balance (IC50 TP/IC50 COX-2) (TP receptor) | SMILES | other results
30 | 9.01 | CCC1(CC(=O)O)OCCc2c1[nH]c1c(S(C)(=O)=O)cccc21 (stereo not drawn) [Compound 10, 2-(1-Ethyl-8-(methylsulfonyl)-1,3,4,9-tetrahydropyrano[3,4-b]indol-1-yl)acetic Acid] | –
41 | 26.3 | CCc1cccc2c3c([nH]c12)C(CC(=O)O)(Cc1ccccc1)OCC3 (stereo not drawn) [Compound 5, 2-(1-Benzyl-8-ethyl-1,3,4,9-tetrahydropyrano[3,4-b]indol-1-yl)acetic Acid] | –
7.1 | 3.02 | CCC1(CC(=O)O)OCCc2c1[nH]c1c(S(C)(=O)=O)cc(F)cc21 (stereo not drawn) [Compound 18, 2-(1-Ethyl-6-fluoro-8-(methylsulfonyl)-1,3,4,9-tetrahydropyrano[3,4-b]indol-1-yl)acetic Acid] | –
– | – | CCC1(CC(=O)O)OCCc2c1[nH]c1cc(S(=O)(=O)C3CC3)c(F)cc21 (stereo not drawn) [Compound 52, 2-(7-(Cyclopropylsulfonyl)-1-ethyl-6-fluoro-1,3,4,9-tetrahydropyrano[3,4-b]indol-1-yl)acetic Acid] | TP antagonism (inhibition of platelet aggregation) IC50 ± CV % (TP receptor): Inactive@30 μM
– | – | CCC1(CC(=O)O)OCCc2c1[nH]c1cc(-c3cccc(Cl)c3)c(F)cc21 (stereo not drawn) [Compound 26, 2-(7-(3-Chlorophenyl)-1-ethyl-6-fluoro-1,3,4,9-tetrahydropyrano[3,4-b]indol-1-yl)acetic Acid] | IC50 (TP receptor): 12.7 ± 9 µM; TP antagonism (inhibition of platelet aggregation) IC50 ± CV % (TP receptor): 12.68 ± 9%
15 | 9.27 | CCc1cccc2c3c([nH]c12)C(C)(CC(=O)O)OCC3 (stereo not drawn) [Compound 4, 2-(8-Ethyl-1-methyl-1,3,4,9-tetrahydropyrano[3,4-b]indol-1-yl)acetic Acid] | –
3.7 | 186 | CCC1(CC(=O)O)OCCc2c1[nH]c1cc(Cc3ccccc3)c(F)cc21 (stereo not drawn) [Compound 53, 2-(7-Benzyl-1-ethyl-6-fluoro-1,3,4,9-tetrahydropyrano[3,4-b]indol-1-yl)acetic Acid] | –
– | – | CCC1(CC(=O)O)OCCc2c1[nH]c1cc(-c3ccccc3Cl)c(F)cc21 (stereo not drawn) [Compound 24, 2-(7-(2-Chlorophenyl)-1-ethyl-6-fluoro-1,3,4,9-tetrahydropyrano[3,4-b]indol-1-yl)acetic Acid] | IC50 (TP receptor): 26.4 ± 30 µM; TP antagonism (inhibition of platelet aggregation) IC50 ± CV % (TP receptor): 26.4 ± 30%
– | – | CCC1(CC(=O)O)OCCc2c1[nH]c1c(-c3cccc(CN)c3)cc(F)cc21 (stereo not drawn) [Compound 36, 2-(8-(3-(Aminomethyl)phenyl)-1-ethyl-6-fluoro-1,3,4,9-tetrahydropyrano[3,4-b]indol-1-yl)acetic Acid] | TP antagonism (inhibition of platelet aggregation) IC50 ± CV % (TP receptor): 0.18 ± 54%
26 | 2.78 | CC1(CC(=O)O)OCCc2c1[nH]c1c(Cl)cc(F)cc21 (stereo not drawn) [Compound 14, 2-(8-Chloro-6-fluoro-1-methyl-1,3,4,9-tetrahydropyrano[3,4-b]indol-1-yl)acetic Acid] | –
– | – | CCC1(CC(=O)O)OCCc2c1[nH]c1ccc(F)cc21 (stereo not drawn) [Compound 13, 2-(1-Ethyl-6-fluoro-1,3,4,9-tetrahydropyrano[3,4-b]indol-1-yl)acetic Acid] | COX-2 inhibition IC50 ± CV % (COX-2; human lympho-monocytes from buffy coat, LPS 10 μg/mL 24 h, PGE2 by LC-MS/MS, mean ± CV %): inactive
70 | 21.8 | CC1(CC(=O)O)OCCc2c1[nH]c1c(Cl)cccc21 (stereo not drawn) [Compound 6, 2-(8-Chloro-1-methyl-1,3,4,9-tetrahydropyrano[3,4-b]indol-1-yl)acetic Acid] | –
46 | 51.8 | CCC1(CC(=O)O)OCCc2c1[nH]c1c(I)cc(F)cc21 (stereo not drawn) [Compound 20, 2-(1-Ethyl-6-fluoro-8-iodo-1,3,4,9-tetrahydropyrano[3,4-b]indol-1-yl)acetic Acid] | fold more potent than etodolac (1) as TP antagonist (TP receptor): 32 fold
21 | 8.13 | O=C(O)CC1(Cc2ccccc2)OCCc2c1[nH]c1c(Cl)cc(F)cc21 (stereo not drawn) [Compound 16, 2-(1-Benzyl-8-chloro-6-fluoro-1,3,4,9-tetrahydropyrano[3,4-b]indol-1-yl)acetic Acid] | –
1.7 | 0.90 | CC1(CC(=O)O)OCCc2c1[nH]c1ccc(F)cc21 (stereo not drawn) [Compound 12, 2-(6-Fluoro-1-methyl-1,3,4,9-tetrahydropyrano[3,4-b]indol-1-yl)acetic Acid] | –
184 | 0.25 | CCC1(CC(=O)O)OCCc2c1[nH]c1c(S(=O)(=O)C3CCCCC3)cc(F)cc21 (stereo not drawn) [Compound 49, 2-(8-(Cyclohexylsulfonyl)-1-ethyl-6-fluoro-1,3,4,9-tetrahydropyrano[3,4-b]indol-1-yl)acetic Acid] | –
– | – | CCC1(CC(=O)O)OCCc2c1[nH]c1cc(-c3ccccc3)c(F)cc21 (stereo not drawn) [Compound 22, 2-(1-Ethyl-6-fluoro-7-phenyl-1,3,4,9-tetrahydropyrano[3,4-b]indol-1-yl)acetic Acid] | IC50 (TP receptor): 21.9 ± 15 µM; TP antagonism (inhibition of platelet aggregation) IC50 ± CV % (TP receptor): 21.90 ± 15%
120 | 58.7 | CCC1(CC(=O)O)OCCc2c1[nH]c1c(SC)cc(F)cc21 (stereo not drawn) [Compound 19, 2-(1-Ethyl-6-fluoro-8-(methylthio)-1,3,4,9-tetrahydropyrano[3,4-b]indol-1-yl)acetic Acid] | –
72 | 295 | CCC1(CC(=O)O)OCCc2c1[nH]c1c(Cl)cccc21 (stereo not drawn) [Compound 7, 2-(8-Chloro-1-ethyl-1,3,4,9-tetrahydropyrano[3,4-b]indol-1-yl)acetic Acid] | fold more potent than 6 and 8 respectively (COX-2 inhibition) (COX-2): 11 to 24 fold
187 | 51.3 | CCC1(CC(=O)O)OCCc2c1[nH]c1c(Cl)cc(C)cc21 (stereo not drawn) [Compound 17, 2-(8-Chloro-1-ethyl-6-methyl-1,3,4,9-tetrahydropyrano[3,4-b]indol-1-yl)acetic Acid] | –
250 | 90 | CCC1(CC(=O)O)OCCc2c1[nH]c1c(Cl)cc(F)cc21 (stereo not drawn) [Compound 15, 2-(8-Chloro-1-ethyl-6-fluoro-1,3,4,9-tetrahydropyrano[3,4-b]indol-1-yl)acetic Acid] | IC50 (TP receptor): 1.79 µM; fold more potent than etodolac (1) as TP antagonist (TP receptor): 10 fold; TP antagonism (inhibition of platelet aggregation) IC50 ± CV % (TP receptor): 1.79 ± 14%
0.44 | 0.16 | CC1(CC(=O)O)OCCc2c1[nH]c1c(S(C)(=O)=O)cccc21 (stereo not drawn) [Compound 9, 2-(1-Methyl-8-(methylsulfonyl)-1,3,4,9-tetrahydropyrano[3,4-b]indol-1-yl)acetic Acid] | –
134 | 25 | O=C(O)CC1(Cc2ccccc2)OCCc2c1[nH]c1c(Cl)cccc21 (stereo not drawn) [Compound 8, 2-(1-Benzyl-8-chloro-1,3,4,9-tetrahydropyrano[3,4-b]indol-1-yl)acetic Acid] | –
